Measurements as given in patent US10375962B2, “Heterocycle derivatives as pesticides” (BAYER CROPSCIENCE AKTIENGESELLSCHAFT, priority 2016, dated 2019).
Like-named read-outs stand apart in the source and are kept apart here.

Experiments:
[1] = log P by HPLC on a reversed-phase column (C 18), EEC Directive 79/831 Annex V.A8; type: physicochemical; settings: for chromatographic logP: reversed-phase HPLC column (C 18)
Source text: Called log P (HCOOH) in the table.
Called log P (neutral) in the table.

[2] = test system: greenhouse red spider mite (Tetranychus urticae); assay: Tetranychus urticae - spray test, OP-resistant; type: in vivo; settings: bean leaf discs, after 6 days
Procedure: (§1) Solvent: 78.0 parts by weight of acetone • • 1.5 parts by weight of dimethylformamide
(§2) Emulsifier: alkylaryl polyglycol ether
(§3) To produce a suitable active compound formulation, 1 part by weight of active compound is dissolved with the stated parts by weight of solvent and made up with water containing an emulsifier concentration of 1000 ppm until the desired concentration is attained. To produce further test concentrations, the formulation is diluted with emulsifier-containing water.
Discs of bean leaves (Phaseolus vulgaris) infested with all stages of the greenhouse red spider mite (Tetranychus urticae) are sprayed with an active compound formulation of the desired concentration.
After 6 days, the efficacy in % is determined. 100% means that all the spider mites have been killed; 0% means that no spider mites have been killed.

[3] = test system: caterpillars of the armyworm (Spodoptera frugiperda); assay: Spodoptera frugiperda - spray test; type: in vivo; settings: maize leaf discs, after 7 days
Procedure: Solvent: 78.0 parts by weight of acetone • • 1.5 parts by weight of dimethylformamide Emulsifier: alkylaryl polyglycol ether […] To produce further test concentrations, the formulation is diluted with emulsifier-containing water. Leaf discs of maize (Zea mays) are sprayed with an active compound preparation of the desired concentration and, after drying, populated with caterpillars of the armyworm (Spodoptera frugiperda).

[4] = test system: larvae of the mustard beetle (Phaedon cochleariae); assay: Phaedon cochleariae - spray test; type: in vivo; settings: after 7 days
Procedure: as §1, §2, §3
Discs of Chinese cabbage leaves (Brassica pekinensis) are sprayed with an active compound formulation of the desired concentration and, after drying, populated with larvae of the mustard beetle (Phaedon cochleariae).
After 7 days, the efficacy in % is determined. 100% means that all the beetle larvae have been killed and 0% means that none of the beetle larvae have been killed.

[5] = test system: L1 larvae of the Australian sheep blowfly (Lucilia cuprina); assay: Lucilia cuprina test; type: in vivo; settings: application rate 100 ppm; after 2 days
Procedure: (§4) Solvent: dimethyl sulphoxide
To produce a suitable active compound formulation, 10 mg of active compound are mixed with 0.5 ml of dimethyl sulphoxide, and the concentrate is diluted with water to the desired concentration.
About 20 L1 larvae of the Australian sheep blowfly (Lucilia cuprina) are transferred into a test vessel containing minced horsemeat and the active compound formulation of the desired concentration.
After 2 days, the kill in % is determined. 100% means that all the larvae have been killed; 0% means that no larvae have been killed.

[6] = test system: unfed adult cat fleas (Ctenocephalides felis); assay: Ctenocephalides felis - oral test; type: in vivo; settings: application rate 100 ppm in citrated cattle blood; after 2 days
Procedure: as §4
For the purpose of production of a suitable active compound formulation, 10 mg of active compound are mixed with 0.5 ml of dimethyl sulphoxide. Dilution with citrated cattle blood gives the desired concentration.
About 20 unfed adult cat fleas (Ctenocephalides felis) are placed into a chamber which is closed at the top and bottom with gauze. A metal cylinder whose bottom end is closed with parafilm is placed onto the chamber. The cylinder contains the blood/active compound formulation, which can be imbibed by the fleas through the parafilm membrane.
After 2 days, the kill in % is determined. 100% means that all of the fleas have been killed; 0% means that none of the fleas have been killed.

[7] = test system: green peach aphid (Myzus persicae); assay: Myzus persicae spray test (bell pepper plants); type: in vivo; settings: application rate 20 ppm, after 6 days
Procedure: Solvent: 14 parts by weight of dimethylformamide
as §2
To produce a suitable active compound formulation, 1 part by weight of active compound is dissolved with the stated parts by weight of solvent and made up with water containing an emulsifier concentration of 1000 ppm until the desired concentration is attained. To produce further test concentrations, the formulation is diluted with emulsifier-containing water. If the addition of ammonium salts or/and penetrants is required, these are each added in a concentration of 1000 ppm to the formulation solution.
Bell pepper plants (Capsicum annuum) severely infested with the green peach aphid (Myzus persicae) are treated by spraying with the active compound formulation in the desired concentration.
After 6 days, the kill in % is determined. 100% means that all of the aphids have been killed; 0% means that none of the aphids have been killed.

[8] = test system: adult cat fleas (Ctenocephalides felis); assay: Ctenocephalides felis - in vitro contact tests with adult cat fleas; type: in vivo; settings: application rate 5 μg/cm^2; after 48 h
Procedure: For the coating of the test tubes, 9 mg of active compound are first dissolved in 1 ml of acetone p.a. and then diluted to the desired concentration with acetone p.a. 250 μl of the solution are distributed homogeneously on the inner walls and the base of a 25 ml test tube by turning and rocking on an orbital shaker (rocking rotation at 30 rpm for 2 h). With 900 ppm of active compound solution and internal surface area 44.7 cm^2, given homogeneous distribution, an area-based dose of 5 μg/cm^2 is achieved.
After the solvent has evaporated off, the tubes are populated with 5-10 adult cat fleas (Ctenocephalides felis), sealed with a perforated plastic lid and incubated in a horizontal position at room temperature and ambient humidity. After 48 h, efficacy is determined. To this end, the test tubes are stood upright and the fleas are knocked to the base of the tube. Fleas which remain motionless at the base or move in an uncoordinated manner are considered to be dead or moribund.
100% efficacy means that all the fleas were dead or moribund. 0% efficacy means that no fleas were harmed.

[9] = test system: green peach aphid (Myzus persicae); assay: Myzus persicae - spray test (Chinese cabbage leaf discs); type: in vivo; settings: after 5 days
Procedure: Solvent: 78 parts by weight of acetone • • 1.5 parts by weight of dimethylformamide Emulsifier: alkylaryl polyglycol ether
as §3
Discs of Chinese cabbage leaves (Brassica pekinensis) infested by all stages of the green peach aphid (Myzus persicae) are sprayed with an active compound formulation of the desired concentration.
After 5 days, the efficacy in % is determined. 100% means that all the aphids have been killed and 0% means that none of the aphids have been killed.

[10] = acidic range, pH 2.7, 0.1% aqueous formic acid/acetonitrile, 55° C.
[11] = neutral range, pH 7.8, 0.001 molar aqueous ammonium hydrogencarbonate/acetonitrile, 55° C.

| Compound | chromatographic logP ([1]; acidic range, pH 2.7, 0.1% aqueous formic acid/acetonitrile, 55° C., read-out: LOGP_HCOOH (log P (HCOOH))) | chromatographic logP ([1]; neutral range, pH 7.8, 0.001 molar aqueous ammonium hydrogencarbonate/acetonitrile, 55° C., read-out: LOGP_NEUTRAL (log P (neutral))) | efficacy ([2]; application rate 500 g/ha) | efficacy ([3]; application rate 100 g/ha) | efficacy ([3]; application rate 500 g/ha) | LOGP_HCOOH (log P (HCOOH)) ([1]; pH 2.7) | LOGP_NEUTRAL (log P (neutral)) ([1]; pH 7.8) | efficacy ([4]; application rate 100 g/ha) | efficacy ([4]; application rate 500 g/ha) | efficacy (kill) [5] | efficacy (kill) [6] | efficacy (kill) [7] | efficacy (fleas dead or moribund) [8] | LOGP_HCOOH (log P (HCOOH)) [1, 10] | LOGP_NEUTRAL (log P (neutral)) [1, 11] | efficacy ([9]; application rate 100 g/ha) | efficacy ([9]; application rate 500 g/ha) | efficacy ([2]; application rate 100 g/ha) |
| --- | --- | --- | --- | --- | --- | --- | --- | --- | --- | --- | --- | --- | --- | --- | --- | --- | --- | --- |
| CCS(=O)(=O)c1ccc(-n2ncc3ccc(Cl)cc32)nc1-c1nc2cc(C(F)(F)F)ncc2n1C [Example I-2, 2-[6-(6-Chloroindazol-1-yl)-3-ethylsulphonyl-2-pyridyl]-3-methyl-6-(trifluoromethyl)imidazo[4,5-c]pyridine] | 4.01 | 3.92 | 70% |  |  |  |  |  |  |  |  |  |  |  |  |  |  |  |
| CCS(=O)(=O)c1ccc(-c2cc3cc(C#N)ccc3[nH]2)nc1-c1nc2cc(C(F)(F)F)ncc2n1C [Example I-3] |  |  |  | 100% | 83% | 3.18 | 3.08 | 100% | 100% | 100% | 95% |  |  |  |  |  |  |  |
| CCS(=O)(=O)c1ccc(-c2ccc3nn(C)cc3c2)nc1-c1nc2cc(C(F)(F)F)ncc2n1C [Example I-15] |  |  | 90% |  | 100% | 2.62 | 2.58 | 100% | 100% | 100% |  |  |  |  |  |  |  |  |
| CCS(=O)(=O)c1ccc(-n2cnc3cc(Cl)ccc32)nc1-c1nc2cc(C(F)(F)F)ncc2n1C [Example I-17] |  |  |  | 100% | 100% | 3.19 | 3.12 | 100% | 100% |  | 100% | 90% |  |  |  |  |  |  |
| CCS(=O)(=O)c1ccc(N2Cc3ccccc3C2)nc1-c1nc2cc(C(F)(F)F)ncc2n1C [Example I-21] |  |  |  | 100% | 100% | 3.59 | 3.63 |  | 83% | 100% | 90% | 100% | 80% |  |  |  |  |  |
| CCS(=O)(=O)c1ccc(N2Cc3cccnc3C2)nc1-c1nc2cc(C(F)(F)F)ncc2n1C [Example I-22] |  |  |  | 100% | 100% |  |  | 100% | 100% | 100% | 100% | 99% | 100% | 2.44 | 2.46 |  |  |  |
| CCS(=O)(=O)c1ccc(-n2cnc3ccccc32)nc1-c1nc2cc(C(F)(F)F)ncc2n1C [Example I-24] |  |  |  | 83% | 100% | 2.66 | 2.64 |  | 83% |  | 95% |  | 100% |  |  | 100% | 90% |  |
| CCS(=O)(=O)c1ccc(N2Cc3ccccc3C2=O)nc1-c1nc2cc(C(F)(F)F)ncc2n1C [Example I-31] |  |  | 90% | 100% | 100% |  |  | 100% | 100% | 100% |  |  | 100% | 3.32 | 3.28 |  |  |  |
| CCS(=O)(=O)c1ccc(N2Cc3ccc(Cl)cc3C2=O)nc1-c1nc2cc(C(F)(F)F)ncc2n1C [Example I-34] |  |  |  | 100% | 100% | 3.83 | 3.79 | 100% | 100% | 100% | 95% | 100% | 100% |  |  |  |  |  |
| CCS(=O)(=O)c1ccc(-n2cnc3nc(Cl)ccc32)nc1-c1nc2cc(C(F)(F)F)ncc2n1C [Example I-35] |  |  |  |  |  |  | 2.53 | 83% | 100% |  | 95% |  | 100% |  |  |  |  |  |
| CCS(=O)(=O)c1ccc(-n2nnc3ccccc32)nc1-c1nc2cc(C(F)(F)F)ncc2n1C [Example I-39] |  |  |  |  |  |  | 3.21 |  |  |  |  |  |  |  |  |  |  | 70% |
| CCS(=O)(=O)c1ccc(-n2nc3ccccn3c2=O)nc1-c1nc2cc(C(F)(F)F)ncc2n1C [Example I-43] |  |  |  |  |  | 2.26 | 2.31 |  |  |  |  |  |  |  |  | 90% |  | 90% |
